Experimental data from patent publication US10363251B2, “(+)-morphinans as antagonists of toll-like receptor 9 and therapeutic uses thereof” (Mallinckrodt LLC, priority 2009, dated 2019).

Assays:
TLR9 = biological target: T1, TLR9 (Homo sapiens, UniProt Q9NR96); assay: TLR9 antagonist screening, NF-κB-inducible SEAP reporter in HEK293 cells; assay type: cell-based; conditions: for Average % Inhibition at TLR9: 10 μM, stimulated with CpG ODN 2006 at 100 ng/ml
T1 construct: expressed in transfected cells; host or cells: HEK293
T1 sequence (Q9NR96 26-1032): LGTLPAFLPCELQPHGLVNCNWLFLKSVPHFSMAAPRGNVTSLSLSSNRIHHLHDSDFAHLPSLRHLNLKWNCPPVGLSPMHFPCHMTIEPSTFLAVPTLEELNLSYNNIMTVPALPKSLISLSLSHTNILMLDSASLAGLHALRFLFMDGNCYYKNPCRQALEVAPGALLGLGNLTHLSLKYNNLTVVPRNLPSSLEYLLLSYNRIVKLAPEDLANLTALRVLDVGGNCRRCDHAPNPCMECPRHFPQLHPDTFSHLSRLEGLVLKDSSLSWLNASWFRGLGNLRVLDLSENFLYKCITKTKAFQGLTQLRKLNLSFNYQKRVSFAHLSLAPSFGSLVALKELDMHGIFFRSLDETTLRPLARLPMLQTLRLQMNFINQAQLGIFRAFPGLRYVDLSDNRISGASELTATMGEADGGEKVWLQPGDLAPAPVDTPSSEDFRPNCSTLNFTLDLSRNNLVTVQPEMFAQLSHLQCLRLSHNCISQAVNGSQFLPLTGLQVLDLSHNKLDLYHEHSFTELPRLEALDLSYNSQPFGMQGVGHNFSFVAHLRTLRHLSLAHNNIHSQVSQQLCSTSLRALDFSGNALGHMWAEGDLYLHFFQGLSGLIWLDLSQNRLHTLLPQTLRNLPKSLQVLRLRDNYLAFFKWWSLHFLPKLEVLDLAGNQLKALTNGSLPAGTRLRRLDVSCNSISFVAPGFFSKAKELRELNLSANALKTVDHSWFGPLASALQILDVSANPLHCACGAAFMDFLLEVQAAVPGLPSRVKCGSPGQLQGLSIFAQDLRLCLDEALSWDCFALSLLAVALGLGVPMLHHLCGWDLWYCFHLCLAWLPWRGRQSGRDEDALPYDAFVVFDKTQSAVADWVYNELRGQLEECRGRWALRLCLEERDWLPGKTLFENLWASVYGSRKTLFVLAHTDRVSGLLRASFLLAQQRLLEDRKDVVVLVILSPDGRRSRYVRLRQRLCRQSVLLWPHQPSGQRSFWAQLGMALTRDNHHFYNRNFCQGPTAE
Description: (§1) Stimulation of TLRs 2, 3, 4, 5, 7, 8, and 9 was determined by assessing activation of the transcription factor NF-κB in HEK293 cells that were engineered to express the corresponding receptors. Assessment of TLR stimulation was based on the use of an NF-κB-inducible secreted alkaline phosphatase (SEAP) reporter system in which the SEAP reporter was under the control of a promoter inducible by NF-κB. Thus, the degree of activation of TLRs can be indirectly quantified spectrophotometrically by measuring the amount of the SEAP reporter that is produced.
(§2) The appropriate TLR-expressing cells were plated in Growth Medium in a 96-well plate (25,000-50,000 cells/well). The cells were stimulated with the appropriate positive control ligand or no ligand was added (negative control). The positive control ligands were: HKLM was used to stimulate TLR2; poly(I:C) was used to stimulate TLR3; LPS was used to stimulate TLR4; Flagellin was used to stimulate TLR5; CL097 was used to stimulate TLR7; CL075 was used to stimulate TLR8; CpG oligodeoxynucleotide (ODN) 2006 was used to stimulate TLR9. To test whether (+)-morphinans could block that activation of the TLR, the cells were pretreated with an antagonist for 30 minutes prior to addition of the positive control ligand. For this, 20 μL of the stock test compound solution (100 μM in H2O) was added to give a total volume of 200 μL. […] After a 16-20 hr incubation period at 37° C. in a CO2 incubator, 20 μL of the cell culture supernatant was added to 180 μL of QUANTI-Blue™ Media (InvivoGen, San Diego, Calif.), and the resulting solutions were incubated at 37° C. for an additional 1-3 hours according to the manufacturer's instructions. The OD's of the samples were then read at 650 nm on a Beckman Coulter AD 340C Absorbance Detector.

TLR4 = biological target: T2, TLR4 (Homo sapiens, UniProt O00206); assay: TLR4 antagonist screening, NF-κB-inducible SEAP reporter in HEK293 cells; assay type: cell-based; conditions: for Average % Inhibition at TLR4: 10 μM, stimulated with LPS at 100 ng/ml
T2 construct: expressed in transfected cells; host or cells: HEK293
T2 sequence (O00206 24-839, species assumed): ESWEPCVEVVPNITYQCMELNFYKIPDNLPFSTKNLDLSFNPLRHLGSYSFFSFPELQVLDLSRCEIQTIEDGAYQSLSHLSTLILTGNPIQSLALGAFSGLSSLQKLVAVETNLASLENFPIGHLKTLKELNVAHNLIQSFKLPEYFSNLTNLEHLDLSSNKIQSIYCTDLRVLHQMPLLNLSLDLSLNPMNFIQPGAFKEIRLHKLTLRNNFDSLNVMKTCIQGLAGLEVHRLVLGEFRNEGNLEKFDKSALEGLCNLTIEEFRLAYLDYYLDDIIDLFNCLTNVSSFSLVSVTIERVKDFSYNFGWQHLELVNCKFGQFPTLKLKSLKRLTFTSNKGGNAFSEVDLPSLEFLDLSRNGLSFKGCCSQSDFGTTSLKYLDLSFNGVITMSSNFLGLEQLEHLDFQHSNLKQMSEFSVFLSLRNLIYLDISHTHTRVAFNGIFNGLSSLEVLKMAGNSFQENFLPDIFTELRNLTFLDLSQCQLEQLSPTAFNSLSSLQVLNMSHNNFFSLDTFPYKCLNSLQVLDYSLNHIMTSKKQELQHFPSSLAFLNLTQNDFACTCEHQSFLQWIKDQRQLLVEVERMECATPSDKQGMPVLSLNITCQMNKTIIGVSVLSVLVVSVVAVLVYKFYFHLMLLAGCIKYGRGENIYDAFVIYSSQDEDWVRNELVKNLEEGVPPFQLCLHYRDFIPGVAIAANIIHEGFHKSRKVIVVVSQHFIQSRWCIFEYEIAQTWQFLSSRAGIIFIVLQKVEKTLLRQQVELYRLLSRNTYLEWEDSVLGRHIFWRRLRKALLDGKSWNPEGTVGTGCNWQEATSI
T2 sequence (Q9Y6Y9 17-160 partner limits assumed, species assumed): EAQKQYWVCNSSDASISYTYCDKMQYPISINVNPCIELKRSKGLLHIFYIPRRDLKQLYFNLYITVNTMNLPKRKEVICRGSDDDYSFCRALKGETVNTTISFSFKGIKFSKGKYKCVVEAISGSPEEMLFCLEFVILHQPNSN
Description: as §1, §2

## C=CCN1CC[C@]23c4c5ccc(O)c4O[C@H]2C(=O)CC[C@]3(O)[C@H]1C5 [(+)-Naloxone, (+)-naloxone]
TLR9
  Average % Inhibition at TLR9: 45%
TLR4
  Average % Inhibition at TLR4: 25%

## COc1ccc2c(c1O)[C@@]13CCN(C)[C@@H](C2)[C@H]1CC(OC)C(=O)C3 (stereo partly drawn) [Dihydrosinomenine, dihydrosinomenine]
TLR9
  Average % Inhibition at TLR9: 42%
TLR4
  Average % Inhibition at TLR4: 23%

## COC1=C[C@@H]2[C@@H]3Cc4ccc(OC)c(O)c4[C@]2(CCN3C)CC1=O [Sinomenine, sinomenine]
TLR9; HEK293, stimulated with CpG ODN 2006 at 100 ng/ml
  inhibition at 10 µM: 55%
TLR4; HEK293, stimulated with LPS at 100 ng/ml
  inhibition at 10 µM: 24%
